Measurements: patent US20260116920A1, “HUMAN TRANSFERRIN RECEPTOR BINDING PEPTIDE” (PEPTIDREAM INC., priority 2021, published 2026)
Positions of bridges follow the written chain, without caps; N, C: chain ends. Non-standard residues stand in square brackets, D forms with d. Residues, ends and D or L forms follow the SMILES beside them. *: point of attachment. Phe(3-COOH) = N[C@@H](Cc1cccc(C(=O)O)c1)C(=O)O; NH(CH2CH2O)8Me = COCCOCCOCCOCCOCCOCCOCCOCCN*; NMePhe(3-Cl) = CN[C@@H](Cc1cccc(Cl)c1)C(=O)O; NMeY = CN[C@@H](Cc1ccc(O)cc1)C(=O)O; 3Pal = N[C@@H](Cc1cccnc1)C(=O)O; 4Pal = N[C@@H](Cc1ccncc1)C(=O)O; PEG4 = NCCOCCOCCOCCOCCC(=O)O; Carboxymethyl = O=C(O)C*

target: T1, human transferrin receptor (hTfR) (Homo sapiens, UniProt P02786); assay: Evaluation of molecular interaction between transferrin receptor (hTfR) and peptide using surface plasmon resonance (SPR); format: binding; conditions: surface plasmon resonance, binding to hTfR; KD class symbol; read-out: SPR (KD value)
T1 construct: made in house
Method in brief: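 Single-cycle SPR kinetics, KD by least-squares sensorgram fitting, with peptide series of 100, 50, 25, 10 and 5 nM. Running buffer: 10 mM HEPES pH 8.0, 150 mM NaCl, 0.05% Tween 20, 0.1% BSA, 1.0% DMSO. Surface: hTfR dimer covalently coupled (EDC/NHS) onto Ni-NTA chip.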

T1 sequence (P02786 89-760 limits assumed): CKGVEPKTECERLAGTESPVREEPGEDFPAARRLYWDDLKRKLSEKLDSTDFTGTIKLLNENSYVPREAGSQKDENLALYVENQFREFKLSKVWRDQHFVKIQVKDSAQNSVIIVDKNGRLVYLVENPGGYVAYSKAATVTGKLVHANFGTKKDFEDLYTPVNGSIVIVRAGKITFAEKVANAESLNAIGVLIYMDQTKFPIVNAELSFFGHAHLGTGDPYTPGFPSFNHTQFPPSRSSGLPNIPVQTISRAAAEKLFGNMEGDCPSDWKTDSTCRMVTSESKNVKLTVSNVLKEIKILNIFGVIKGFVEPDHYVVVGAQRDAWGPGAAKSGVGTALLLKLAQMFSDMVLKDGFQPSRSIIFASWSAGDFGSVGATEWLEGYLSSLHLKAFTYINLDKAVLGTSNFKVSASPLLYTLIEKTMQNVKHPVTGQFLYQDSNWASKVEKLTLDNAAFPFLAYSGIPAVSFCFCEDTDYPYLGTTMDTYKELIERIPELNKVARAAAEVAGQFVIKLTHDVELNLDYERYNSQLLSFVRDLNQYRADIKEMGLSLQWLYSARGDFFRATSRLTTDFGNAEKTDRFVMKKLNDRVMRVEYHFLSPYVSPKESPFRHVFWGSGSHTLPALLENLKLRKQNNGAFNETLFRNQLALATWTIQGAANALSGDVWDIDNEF

Kd, 1 to 100 nM:
CC[C@H](C)[C@@H]1NC(=O)[C@H](Cc2ccc(OCC(=O)O)cc2)NC(=O)[C@H](Cc2ccc(N)nc2)NC(=O)[C@H](CC(N)=O)NC(=O)[C@H](Cc2c[nH]c3ccccc23)NC(=O)[C@H](C(C)C)NC(=O)[C@H](Cc2cccc(Cl)c2)N(C)C(=O)[C@H](C(C)C)NC(=O)[C@H](C)NC(=O)CSC[C@@H](C(=O)NCCOCCOCCOCCOCCC(N)=O)NC(=O)[C@H](Cc2ccc(O)cc2)N(C)C(=O)[C@H](Cc2ccncc2)NC(=O)[C@H](CCCNC(=N)N)NC(=O)[C@H](CCCNC(=N)N)NC(=O)[C@H]([C@@H](C)CC)NC1=O [compound 92]
CC[C@H](C)[C@@H]1NC(=O)[C@H](Cc2cccnc2)NC(=O)[C@H](Cc2ccc(O)cc2)NC(=O)[C@H](CC(N)=O)NC(=O)[C@H](Cc2c[nH]c3ccccc23)NC(=O)[C@H](C(C)C)NC(=O)[C@H](Cc2cccc(Cl)c2)N(C)C(=O)[C@H](C(C)C)NC(=O)[C@H](C)NC(=O)CSC[C@@H](C(=O)NCCOCCOCCOCCOCCC(N)=O)NC(=O)[C@H](Cc2ccc(O)cc2)N(C)C(=O)[C@H](Cc2cccc(C(=O)O)c2)NC(=O)[C@H](CCC(=O)NCCOCCOCCOCCOCCOCCOCCOCCOC)NC(=O)[C@H](CCCNC(=N)N)NC(=O)[C@H]([C@@H](C)CC)NC1=O [compound 93] ({CH2CO}-AV[NMePhe(3-Cl)]VWNY[3Pal]IIRE(NH(CH2CH2O)8Me)[Phe(3-COOH)][NMeY]C[PEG4]-NH2; thioether N-15)
CC[C@H](C)[C@@H]1NC(=O)[C@H](Cc2cccnc2)NC(=O)[C@H](Cc2ccc(O)cc2)NC(=O)[C@H](CC(N)=O)NC(=O)[C@H](Cc2c[nH]c3ccccc23)NC(=O)[C@H](C(C)C)NC(=O)[C@H](Cc2cccc(Cl)c2)N(C)C(=O)[C@H](C(C)C)NC(=O)[C@H](C)NC(=O)CSC[C@@H](C(=O)NCCOCCOCCOCCOCCC(N)=O)NC(=O)[C@H](Cc2ccc(O)cc2)N(C)C(=O)[C@H](Cc2ccncc2)NC(=O)[C@H](CCC(=O)NCCOCCOCCOCCOCCOCCOCCOCCOC)NC(=O)[C@H](CCCNC(=N)N)NC(=O)[C@H]([C@@H](C)CC)NC1=O [compound 94] ({CH2CO}-AV[NMePhe(3-Cl)]VWNY[3Pal]IIRE(NH(CH2CH2O)8Me)[4Pal][NMeY]C[PEG4]-NH2; thioether N-15)
CC[C@H](C)[C@@H]1NC(=O)[C@H](Cc2ccc(OCC(=O)O)cc2)NC(=O)[C@H](Cc2ccc(O)cc2)NC(=O)[C@H](CC(N)=O)NC(=O)[C@H](Cc2c[nH]c3ccccc23)NC(=O)[C@H](C(C)C)NC(=O)[C@H](Cc2cccc(Cl)c2)N(C)C(=O)[C@H](C(C)C)NC(=O)[C@H](C)NC(=O)CSC[C@@H](C(=O)NCCOCCOCCOCCOCCC(N)=O)NC(=O)[C@H](Cc2ccc(O)cc2)N(C)C(=O)[C@H](Cc2cccc(C(=O)O)c2)NC(=O)[C@H](CCC(=O)NCCOCCOCCOCCOCCOCCOCCOCCOC)NC(=O)[C@H](CCCNC(=N)N)NC(=O)[C@H]([C@@H](C)CC)NC1=O [compound 95] ({CH2CO}-AV[NMePhe(3-Cl)]VWNYY(Carboxymethyl)IIRE(NH(CH2CH2O)8Me)[Phe(3-COOH)][NMeY]C[PEG4]-NH2; thioether N-15)
CC[C@H](C)[C@@H]1NC(=O)[C@H](Cc2ccc(OCC(=O)O)cc2)NC(=O)[C@H](Cc2ccc(O)cc2)NC(=O)[C@H](CC(N)=O)NC(=O)[C@H](Cc2c[nH]c3ccccc23)NC(=O)[C@H](C(C)C)NC(=O)[C@H](Cc2cccc(Cl)c2)N(C)C(=O)[C@H](C(C)C)NC(=O)[C@H](C)NC(=O)CSC[C@@H](C(=O)NCCOCCOCCOCCOCCC(N)=O)NC(=O)[C@H](Cc2ccc(O)cc2)N(C)C(=O)[C@H](Cc2ccncc2)NC(=O)[C@H](CCC(=O)NCCOCCOCCOCCOCCOCCOCCOCCOC)NC(=O)[C@H](CCCNC(=N)N)NC(=O)[C@H]([C@@H](C)CC)NC1=O [compound 96] ({CH2CO}-AV[NMePhe(3-Cl)]VWNYY(Carboxymethyl)IIRE(NH(CH2CH2O)8Me)[4Pal][NMeY]C[PEG4]-NH2; thioether N-15)
